Where two headings read alike, the source gives them in different places. Residues, ends and D or L forms follow the SMILES beside them. *: point of attachment. Cbz = O=C(OCc1ccccc1)*

The values below come from US20120022026A1, “METHOD OF TREATING CANCER” (ERASMUS UNIVERSITY MEDICAL CENTER ROTTERDAM, priority 2009, published 2012).

Assay [1] deals with R1 cells. Kind of assay: Clonogenic assay, R1 cells with mild hyperthermia. It is filed as cell-based, rat. As to conditions: R1, 41° C.; for clonogenic survival: combination of 100 μM NU1025 and 100 nM 17-DMAG (FIG. 4B). As to the method:
(§1) Embryonic stem (ES) cells were cultured on gelatin-coated dishes in a 1:1 mixture of Dulbecco's modified Eagle's medium (DMEM) and buffalo rat liver conditioned medium, supplemented with 10% FBS (Hyclone), 0.1 mM nonessential amino acids (Biowhittaker), […] β-mercaptoethanol (Sigma) and 500 U ml-1 leukemia inhibitory factor. Other cells were cultured in following media, supplemented with 10% (v/v) FCS and streptomycin/penicillin: 1:1 mixture of DMEM and Ham's F10 (HeLa), DMEM (human melanoma [BLM], osteosarcoma [U2OS], cervix carcinoma cells), L-15 (human squamous lung carcinoma [SW-1573]), Eagle's MEM (mouse osteosarcoma [MOS], rat rhabdomyosarcoma [R1]). Cells were maintained at 37° C. in an atmosphere containing 5% (HeLa, BLM), 10% (U2OS, cervix carcinoma cells), 2% (R1) or 0% (SW-1573) CO2. Patients with cervical cancer expressed written informed consent to provide fresh biopsies during an investigation under general anesthesia, and use the tumor specimens for this study. This study was approved by the medical ethical committee of the AMC (MEC #03/137). The biopsies were minced using scalpel, then incubated in Liberase Blendzyme enzyme cocktail (Roche) in DMEM for 60 min at 37° C. and plated on glass coverslips in fresh culture medium. All incubations at elevated temperature were performed in a heated waterbath or in a water-filled cuvette placed in an incubator set to required temperature, in an atmosphere containing appropriate CO2 concentration.
The following inhibitors were used at the indicated final concentrations: 17-DMAG, 100 nM (Sigma-Aldrich), NU1025, 100 μM (Sigma-Aldrich), MG-132, 10 μM (Calbiochem).
(§2) In experiments involving NU1025 or irradiation, cells were trypsinized, counted and plated at appropriate concentrations into 60- or 35 mm dishes. […] Cells were then incubated for 7-14 days, fixed, stained and colonies exceeding 50 cells were counted. […] In experiments involving a combination of NU1025 and 17-DMAG, cells were first treated as indicated and subsequently trypsinized, counted and plated at various concentrations. […]

For assay [2], the system named is BRCA2. Nature of the assay: Immunoblotting of BRCA2 in BLM cells under mild hyperthermia. In kind it is cell-based, human. As to conditions: hyperthermia plus 100 nM 17-DMAG vs heat without 17-DMAG or 17-DMAG at 37° C. (FIG. 4A). As to the method:
as §1, with “The biopsies were minced using scalpel, then incubated in Liberase Blendzyme enzyme cocktail (Roche) in DMEM for 60 min at 37° C. and plated on glass coverslips in fresh culture medium. All incubations at elevated temperature were performed in a heated waterbath or in a water-filled cuvette placed in an incubator set to required temperature, in an atmosphere containing appropriate CO2 concentration.” left out
(§3) Cells were lysed in SDS sample buffer (2% SDS, 10% glycerol, 60 mM Tris-HCl pH 6.8). […] Protein concentration was determined by the Lowry protein assay, extracts were supplemented with 0.5% […] and 0.02% bromophenol blue. […]
Background: In western blotting, separated proteins are transferred to a membrane and probed.

For assay [3], the system named is HR-mediated gene targeting. Nature of the assay: Gene targeting efficiency assay in ES cells. It is filed as cell-based. As to conditions: mouse ES cells, 41° C. plus 100 nM 17-DMAG vs heat without 17-DMAG or 17-DMAG at 37° C. (FIG. 1C). As to the method: as §1, with “All incubations at elevated temperature were performed in a heated waterbath or in a water-filled cuvette placed in an incubator set to required temperature, in an atmosphere containing appropriate CO2 concentration.” left out

Assay [4] deals with PARP-2 (Homo sapiens, UniProt Q9UGN5). As to conditions: cited from earlier work.
Chain of PARP-2 (Q9UGN5 whole entry, species assumed): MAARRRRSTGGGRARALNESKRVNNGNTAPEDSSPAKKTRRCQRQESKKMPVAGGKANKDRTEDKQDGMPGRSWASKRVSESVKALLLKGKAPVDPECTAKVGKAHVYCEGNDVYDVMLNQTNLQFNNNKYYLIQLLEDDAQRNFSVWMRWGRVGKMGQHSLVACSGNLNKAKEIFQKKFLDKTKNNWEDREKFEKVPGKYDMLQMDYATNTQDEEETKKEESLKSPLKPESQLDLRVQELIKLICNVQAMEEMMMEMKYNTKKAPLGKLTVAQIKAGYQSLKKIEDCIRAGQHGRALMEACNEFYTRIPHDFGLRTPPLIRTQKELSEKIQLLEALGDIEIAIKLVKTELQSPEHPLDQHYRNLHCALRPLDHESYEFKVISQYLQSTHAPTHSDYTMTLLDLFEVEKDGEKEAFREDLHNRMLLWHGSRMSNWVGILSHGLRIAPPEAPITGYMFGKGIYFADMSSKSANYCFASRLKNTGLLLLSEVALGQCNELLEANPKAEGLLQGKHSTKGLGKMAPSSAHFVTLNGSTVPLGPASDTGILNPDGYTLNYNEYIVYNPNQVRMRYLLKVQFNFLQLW
For assay [5], the system named is PARP. As to conditions: cited from earlier work.
Assay [6] deals with BRCA2. Kind of assay: Immunoblotting of BRCA2 in HeLa cells under mild hyperthermia. In kind it is cell-based. As to conditions: exposed to 41° C. in presence of 10 μM MG132 (FIG. 2C). The method, then: as §1, with “The biopsies were minced using scalpel, then incubated in Liberase Blendzyme enzyme cocktail (Roche) in DMEM for 60 min at 37° C. and plated on glass coverslips in fresh culture medium. All incubations at elevated temperature were performed in a heated waterbath or in a water-filled cuvette placed in an incubator set to required temperature, in an atmosphere containing appropriate CO2 concentration.” left out
as §3

The subject of assay [7] is U2OS cells. Nature of the assay: Clonogenic assay, U2OS cells with mild hyperthermia. It is filed as cell-based, human. As to conditions: 41° C., 100 μM NU1025 (FIG. 3A). As to the method: (§4) Embryonic stem (ES) cells were cultured on gelatin-coated dishes in a 1:1 mixture of Dulbecco's modified Eagle's medium (DMEM) and buffalo rat liver conditioned medium, supplemented with 10% FBS (Hyclone), 0.1 mM nonessential amino acids (Biowhittaker), […] β-mercaptoethanol (Sigma) and 500 U ml-1 leukemia inhibitory factor. Other cells were cultured in following media, supplemented with 10% (v/v) FCS and streptomycin/penicillin: 1:1 mixture of DMEM and Ham's F10 (HeLa), DMEM (human melanoma [BLM], osteosarcoma [U2OS], cervix carcinoma cells), L-15 (human squamous lung carcinoma [SW-1573]), Eagle's MEM (mouse osteosarcoma [MOS], rat rhabdomyosarcoma [R1]). Cells were maintained at 37° C. in an atmosphere containing 5% (HeLa, BLM), 10% (U2OS, cervix carcinoma cells), 2% (R1) or 0% (SW-1573) CO2. […]
as §2

Assay [8] deals with SW-1573 cells. Nature of the assay: Clonogenic assay, SW-1573 cells. In kind it is cell-based, human. The method, then:
as §4, §2

Assay [9] relates to MOS cells. Nature of the assay: Clonogenic assay, MOS cells. It is filed as cell-based, mouse. The method, then: as §4, §2
Assay [10] addresses recombinant PARP-1 (Homo sapiens, UniProt P09874). The note with it: recombinant PARP-1, cell-free assay; read-out: competitive inhibition Ki; cited from earlier work.
[11] abbreviates: PARP inhibitor potency as listed, isoform not stated.

Chain of recombinant PARP-1 (P09874 whole entry, species assumed, canonical isoform): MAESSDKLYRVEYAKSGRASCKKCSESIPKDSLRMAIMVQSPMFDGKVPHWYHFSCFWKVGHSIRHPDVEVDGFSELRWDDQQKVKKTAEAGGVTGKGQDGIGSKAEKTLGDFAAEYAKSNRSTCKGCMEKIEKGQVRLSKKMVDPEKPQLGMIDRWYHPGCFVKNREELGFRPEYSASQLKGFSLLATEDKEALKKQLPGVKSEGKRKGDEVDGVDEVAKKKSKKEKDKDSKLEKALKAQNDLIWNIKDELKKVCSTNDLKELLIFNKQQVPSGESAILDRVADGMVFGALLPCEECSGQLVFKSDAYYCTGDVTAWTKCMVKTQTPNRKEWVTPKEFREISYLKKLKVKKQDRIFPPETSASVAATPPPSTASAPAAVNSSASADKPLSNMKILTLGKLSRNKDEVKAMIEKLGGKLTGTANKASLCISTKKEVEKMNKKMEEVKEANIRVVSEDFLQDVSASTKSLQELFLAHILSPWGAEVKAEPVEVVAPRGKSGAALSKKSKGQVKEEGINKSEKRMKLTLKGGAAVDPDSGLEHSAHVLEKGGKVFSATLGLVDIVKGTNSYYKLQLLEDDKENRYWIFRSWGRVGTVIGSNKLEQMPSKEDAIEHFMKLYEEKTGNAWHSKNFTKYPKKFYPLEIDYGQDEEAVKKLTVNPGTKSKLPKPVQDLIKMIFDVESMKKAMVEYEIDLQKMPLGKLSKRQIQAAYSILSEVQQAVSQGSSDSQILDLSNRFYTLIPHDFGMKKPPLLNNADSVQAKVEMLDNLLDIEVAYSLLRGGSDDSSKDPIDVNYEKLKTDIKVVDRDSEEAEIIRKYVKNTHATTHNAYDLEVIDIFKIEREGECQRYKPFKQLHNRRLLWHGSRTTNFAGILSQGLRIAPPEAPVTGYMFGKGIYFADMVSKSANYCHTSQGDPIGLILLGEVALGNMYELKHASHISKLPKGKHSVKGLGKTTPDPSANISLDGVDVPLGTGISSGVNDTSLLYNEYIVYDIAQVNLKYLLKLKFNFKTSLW

With `CO[C@H]1/C=C\C=C(/C)C(=O)NC2=CC(=O)C(NCCN(C)C)=C(C[C@@H](C)C[C@H](OC)[C@H](O)[C@@H](C)/C=C(\C)[C@@H]1OC(N)=O)C2=O` [17-DMAG, 17-dimethylaminoethylamino-17-demethoxy-geldanamycin], the clonogenic survival entry in assay [1] is recorded as “dramatically reduced”. For the same compound, in assay [2], the “levels of BRCA2 protein” value is given as “further reduced”. The “efficiency of HR-mediated gene targeting” value in assay [3] is given as “further reduced”. As usually defined, the IC50 is the midpoint of a concentration-inhibition curve. With `NC(=O)c1cccc2ncc(-c3ccc(Cl)cc3)nc12` [3-(4-chlorophenyl)quinoxaline-5-carboxamide], the IC50 in [4] was 7 nM.

For the compound `Oc1cccc2c(O)nccc12` [IQD, 1,5-dihydroxyisoquinoline], the IC50 in [5] (setting [11]) is 390 nM. As to `O=C1NCCc2c(OCCCCN3CCCCC3)cccc21` [DPQ, 3,4-dihydro-5[4-(1-piperindinyl)butoxy]-1(2H)-isoquinoline], the half-maximal inhibitory concentration (IC50) in assay [5] (setting [11]) was 40 nM.

Consider `O=C1N=C2SCC=C2c2ccccc21` [TIQ-A, thieno[2,3-c]isoquinolin-5-one], for which the IC50 in assay [5] (setting [11]) is 450 nM. Take `Nc1ncnc2c1ncn2C1OC(C(=O)N2CCN(CC(=O)Nc3cccc4c3CNC4=O)CC2)C(O)C1O` [EB-47, 1-piperazineacetamide,4-[1-(6-amino-9H-purin-9-yl)-1-deoxy-6-D-ribofuranuron]-N-(2,3-dihydro-1H-isoindol-4-yl)-1-one]: the IC50 in assay [5] (setting [11]) was 45 nM. `Nc1ccc2c3c(cccc13)C(=O)NC2=O` [4-ANI, 4-amino-1,8-naphthalimide]: in [5], the IC50 is 180 nM. `CC(C)C[C@@H](C=O)NC(=O)[C@H](CC(C)C)NC(=O)[C@H](CC(C)C)NC(=O)OCc1ccccc1` [MG132] (Cbz-Leu-Leu-Leu-aldehyde): the “BRCA2 levels on hyperthermia” value in assay [6] is recorded as “no decrease of BRCA2 levels”. As for `Cc1nc2c(O)cccc2c(=O)[nH]1` [NU1025, 8-hydroxy-2-methylquinazoline-4-one], the “clonogenic survival compared to hyperthermia alone” value in assay [7] and in [1] (100 μM NU1025 (FIG. 3B)) was “decrease in clonogenic survival” each time. Besides, in assay [1], the clonogenic survival result is listed as “dramatically reduced”. Further, the “sensitivity to inhibitor alone” value is reported as “insensitive” in [8] (SW-1573, NU1025 alone, data not shown) and “insensitive” in assay [9] (NU1025 alone, data not shown). The “survival of hyperthermia-treated cells” value in assay [8] (SW-1573, hyperthermia plus NU1025, data not shown) is “did not reduce survival”; in [9] (hyperthermia plus NU1025, data not shown) it was “did not reduce survival”. In addition, the IC50 in [5] was 400 nM. As usually defined, the EC50 is the concentration giving half of the maximal effect. For the compound `NC(=O)c1cccc(N)c1` [3-ABA, 3-aminobenzamide], the EC50 in assay [5] (PARP inhibitor potency as listed) is […]. Take `Cc1nc2c(c(=O)[nH]1)CSCC2` [DR2313, 2-methyl-3,5,7,8-tetrahydrothiopyrano[4,3-d]pyrimidine-4-one]: the IC50 in [4] was 240 nM. For orientation: Ki means a dissociation constant, usually derived from enzyme kinetics or from competition with a known ligand. Consider `CN(C)c1ccc(O)c2c1C[C@H]1C[C@H]3[C@H](N(C)C)C(O)=C(C(N)=O)C(=O)[C@@]3(O)C(O)=C1C2=O` [minocycline], for which the Ki in assay [10] was 13.8 nM.
